How the values were obtained:
CASOB (Sicklepod) = test: Postemergence herbicidal evaluation; type: in vivo, Cassia obtusifolia; conditions: postemergence
How it was run: (§1)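 Young plants, roughly two weeks from seeding, receive the active ingredient as a sprayed dispersion (acetone/water 50/50, 0.5% TWEEN 20) at 40 psi. Doses span about 0.0156 to 0.500 kg/ha. A visual score from 0 to 9 compares treated with control plants four to five weeks on.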

[1] = tested on: CHEAL (Lambsquarters, Common); test: Postemergence herbicidal evaluation; type: in vivo, Chenopodium album; conditions: postemergence
How it was run: as §1

ECHCG (Barnyardgrass) = test: Postemergence herbicidal evaluation; type: in vivo, Echinochloa crus-galli; conditions: postemergence
How it was run: as §1

ORYSAT (Rice, Tebonnet) [2] = test: Postemergence herbicidal evaluation; type: in vivo, Oryza sativa, (L.) Tebonnet; conditions: postemergence
How it was run: as §1

GALAP (Galium) = test: Preemergence herbicidal evaluation; type: in vivo, Galium aparine; conditions: rated 4-5 weeks after treatment
How it was run: (§2)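 Rating at 4–5 wk post-spray on a 0–9 visual scale vs control. Application: aqueous acetone, ~0.0156–0.500 kg/ha, to soil surface after seeding, preemergence.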

SETVI (Foxtail, Green) = test: Preemergence herbicidal evaluation; type: in vivo, Setaria viridis; conditions: rated 4-5 weeks after treatment
How it was run: as §2

[3] = tested on: GLXMAW (Soybean, Williams); test: Preemergence herbicidal evaluation; type: in vivo, Glycine max, (L.) Merr. cv Williams; conditions: rated 4-5 weeks after treatment
How it was run: as §2

ORYSAT (Rice, Tebonnet) [4] = test: Preemergence herbicidal evaluation; type: in vivo, Oryza sativa, (L.) Tebonnet; conditions: rated 4-5 weeks after treatment
How it was run: as §2

[5] = tested on: TRZAWR (Wheat, Winter, cv Riband); test: Preemergence herbicidal evaluation; type: in vivo, Triticum aestivum; conditions: rated 4-5 weeks after treatment
How it was run: as §2

ZEAMX (Corn, Field) = test: Preemergence herbicidal evaluation; type: in vivo, Zea mays; conditions: rated 4-5 weeks after treatment
How it was run: as §2

CYPIR (Rice Flatsedge) = test: Preemergence weed control under flooded paddy conditions; type: in vivo, Cyperus iria; conditions: rated 3-4 weeks after treatment
How it was run: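 Seeds or propagules sown in silt loam kept flooded 1.5-3 cm; compounds in 50/50 acetone/water pipetted into flood water at about 0.0313 to 0.500 kg/ha. Greenhouse; visual 0-9 rating versus untreated control 3-4 weeks after treatment.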

MOOVA (Monochoria) = test: as above; type: in vivo, Monochoria vaginalis; conditions: rated 3-4 weeks after treatment
How it was run: (§3)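 Silt loam, seeds in top 0.5 cm; flood held 1.5-3 cm; test cpd as acetone/water 50/50 into flood water, ~0.0313-0.500 kg/ha a.i.; greenhouse 3-4 wk; visual 0-9 score vs control.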

[6] = tested on: SAGPY (Arrowhead (Pygmaea)); test: as above; type: in vivo, Sagittaria pygmaea; conditions: rated 3-4 weeks after treatment
How it was run: as §3

CYPSE (Flatsedge) = test: Postemergence weed control under flooded paddy conditions; type: in vivo, Cyperus serotinus; conditions: postemergence weeds, 3-4 weeks after treatment
How it was run: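 Weeds 3 to 5 cm tall and rice seedlings at the 1.5 to 2.5 leaf stage were flooded, with water held 1.5 to 3 cm above the soil. Compounds in 50/50 v/v aqueous/acetone went into the flood water at about 0.0313 to 0.500 kg/ha. Visual 0-9 ratings versus control were made 3 to 4 weeks later.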

**Q.** Which CASOB herbicidal rating (CASOB (Sicklepod); rate 0.0156 kg/ha) does the source give for `CCOC(=O)CN1C(=O)C(F)SC1=Nc1cc(-n2c(=O)cc(C(F)(F)F)n(C)c2=O)c(F)cc1Cl` (centres unmarked) [Compound 11, Ethyl 2-{{2-chloro-5-[3,6-dihydro-3-methyl-2,6-dioxo-4-(trifluoromethyl)-1(2H)-pyrimidinyl]-4-fluorophenyl}imino}-5-fluoro-4-oxo-3-thiazolidineacetate] here?
**A.** 0.0

**Q.** And the CASOB herbicidal rating (CASOB (Sicklepod); rate 0.0313 kg/ha)?
**A.** 0.0

**Q.** And the CASOB herbicidal rating (CASOB (Sicklepod); rate 0.0625 kg/ha)?
**A.** 0.0

**Q.** What about the CASOB herbicidal rating (CASOB (Sicklepod); rate 0.1250 kg/ha) of the same molecule?
**A.** 3.0

**Q.** And the CHEAL herbicidal rating ([1]; rate 0.0156 kg/ha)?
**A.** 7.0

**Q.** What about the CHEAL herbicidal rating ([1]; rate 0.0313 kg/ha) of the same molecule?
**A.** 9.0

**Q.** And the CHEAL herbicidal rating ([1]; rate 0.0625 kg/ha)?
**A.** 9.0

**Q.** And the CHEAL herbicidal rating ([1]; rate 0.1250 kg/ha)?
**A.** 9.0

**Q.** What about the ECHCG herbicidal rating (ECHCG (Barnyardgrass); rate 0.0156 kg/ha) of the same molecule?
**A.** 0.0

**Q.** What about the ECHCG herbicidal rating (ECHCG (Barnyardgrass); rate 0.0313 kg/ha) of the same molecule?
**A.** 0.0

**Q.** What about the ECHCG herbicidal rating (ECHCG (Barnyardgrass); rate 0.0625 kg/ha) of the same molecule?
**A.** 6.0

**Q.** And the ECHCG herbicidal rating (ECHCG (Barnyardgrass); rate 0.1250 kg/ha)?
**A.** 7.0

**Q.** And the ORYSAT herbicidal rating (ORYSAT (Rice, Tebonnet) [2]; rate 0.0156 kg/ha)?
**A.** 2.0

**Q.** And the ORYSAT herbicidal rating (ORYSAT (Rice, Tebonnet) [2]; rate 0.0313 kg/ha)?
**A.** 2.0

**Q.** And the ORYSAT herbicidal rating (ORYSAT (Rice, Tebonnet) [2]; rate 0.0625 kg/ha)?
**A.** 3.0

**Q.** And the ORYSAT herbicidal rating (ORYSAT (Rice, Tebonnet) [2]; rate 0.1250 kg/ha)?
**A.** 3.0

**Q.** And the “GALAP preemergence herbicidal rating” value (GALAP (Galium); rate 0.0156 kg/ha)?
**A.** 0.0

**Q.** What about the “GALAP preemergence herbicidal rating” value (GALAP (Galium); rate 0.0313 kg/ha) of the same molecule?
**A.** 0.0

**Q.** And the “GALAP preemergence herbicidal rating” value (GALAP (Galium); rate 0.0625 kg/ha)?
**A.** 0.0

**Q.** And the “GALAP preemergence herbicidal rating” value (GALAP (Galium); rate 0.1250 kg/ha)?
**A.** 0.0

**Q.** What about the “GALAP preemergence herbicidal rating” value (GALAP (Galium); rate 0.2500 kg/ha) of the same molecule?
**A.** 9.0

**Q.** And the “SETVI preemergence herbicidal rating” value (SETVI (Foxtail, Green); rate 0.0156 kg/ha)?
**A.** 0.0

**Q.** And the “SETVI preemergence herbicidal rating” value (SETVI (Foxtail, Green); rate 0.0313 kg/ha)?
**A.** 1.0

**Q.** What about the “SETVI preemergence herbicidal rating” value (SETVI (Foxtail, Green); rate 0.0625 kg/ha) of the same molecule?
**A.** 7.0

**Q.** What about the “SETVI preemergence herbicidal rating” value (SETVI (Foxtail, Green); rate 0.1250 kg/ha) of the same molecule?
**A.** 7.5

**Q.** And the “SETVI preemergence herbicidal rating” value (SETVI (Foxtail, Green); rate 0.2500 kg/ha)?
**A.** 9.0

**Q.** What about the “GLXMAW preemergence herbicidal rating” value ([3]; rate 0.0156 kg/ha) of the same molecule?
**A.** 1.5

**Q.** What about the “GLXMAW preemergence herbicidal rating” value ([3]; rate 0.0313 kg/ha) of the same molecule?
**A.** 1.5

**Q.** What about the “GLXMAW preemergence herbicidal rating” value ([3]; rate 0.0625 kg/ha) of the same molecule?
**A.** 3.5

**Q.** And the “GLXMAW preemergence herbicidal rating” value ([3]; rate 0.1250 kg/ha)?
**A.** 6.0

**Q.** And the “GLXMAW preemergence herbicidal rating” value ([3]; rate 0.2500 kg/ha)?
**A.** 8.0

**Q.** And the “ORYSAT preemergence herbicidal rating” value (ORYSAT (Rice, Tebonnet) [4]; rate 0.0156 kg/ha)?
**A.** 0.0

**Q.** And the “ORYSAT preemergence herbicidal rating” value (ORYSAT (Rice, Tebonnet) [4]; rate 0.0313 kg/ha)?
**A.** 0.0

**Q.** And the “ORYSAT preemergence herbicidal rating” value (ORYSAT (Rice, Tebonnet) [4]; rate 0.0625 kg/ha)?
**A.** 0.0

**Q.** What about the “ORYSAT preemergence herbicidal rating” value (ORYSAT (Rice, Tebonnet) [4]; rate 0.1250 kg/ha) of the same molecule?
**A.** 2.0

**Q.** What about the “ORYSAT preemergence herbicidal rating” value (ORYSAT (Rice, Tebonnet) [4]; rate 0.2500 kg/ha) of the same molecule?
**A.** 4.0

**Q.** And the “TRZAWR preemergence herbicidal rating” value ([5]; rate 0.0156 kg/ha)?
**A.** 0.0

**Q.** What about the “TRZAWR preemergence herbicidal rating” value ([5]; rate 0.0313 kg/ha) of the same molecule?
**A.** 0.0

**Q.** What about the “TRZAWR preemergence herbicidal rating” value ([5]; rate 0.0625 kg/ha) of the same molecule?
**A.** 0.0

**Q.** What about the “TRZAWR preemergence herbicidal rating” value ([5]; rate 0.1250 kg/ha) of the same molecule?
**A.** 2.0

**Q.** And the “TRZAWR preemergence herbicidal rating” value ([5]; rate 0.2500 kg/ha)?
**A.** 5.0

**Q.** What about the “ZEAMX preemergence herbicidal rating” value (ZEAMX (Corn, Field); rate 0.0156 kg/ha) of the same molecule?
**A.** 0.0

**Q.** What about the “ZEAMX preemergence herbicidal rating” value (ZEAMX (Corn, Field); rate 0.0313 kg/ha) of the same molecule?
**A.** 0.5

**Q.** And the “ZEAMX preemergence herbicidal rating” value (ZEAMX (Corn, Field); rate 0.0625 kg/ha)?
**A.** 3.5

**Q.** And the “ZEAMX preemergence herbicidal rating” value (ZEAMX (Corn, Field); rate 0.1250 kg/ha)?
**A.** 4.5

**Q.** What about the “ZEAMX preemergence herbicidal rating” value (ZEAMX (Corn, Field); rate 0.2500 kg/ha) of the same molecule?
**A.** 5.5

**Q.** What about the “Herbicidal rating CYPIR” value (CYPIR (Rice Flatsedge); 0.0313 kg/ha) of the same molecule?
**A.** 0.0

**Q.** And the “Herbicidal rating CYPIR” value (CYPIR (Rice Flatsedge); 0.0625 kg/ha)?
**A.** 0.0

**Q.** What about the “Herbicidal rating CYPIR” value (CYPIR (Rice Flatsedge); 0.1250 kg/ha) of the same molecule?
**A.** 0.0

**Q.** What about the “Herbicidal rating CYPIR” value (CYPIR (Rice Flatsedge); 0.2500 kg/ha) of the same molecule?
**A.** 0.0

**Q.** What about the “Herbicidal rating MOOVA” value (MOOVA (Monochoria); 0.0313 kg/ha) of the same molecule?
**A.** 0.0

**Q.** What about the “Herbicidal rating MOOVA” value (MOOVA (Monochoria); 0.0625 kg/ha) of the same molecule?
**A.** 1.0

**Q.** What about the “Herbicidal rating MOOVA” value (MOOVA (Monochoria); 0.1250 kg/ha) of the same molecule?
**A.** 4.0

**Q.** What about the “Herbicidal rating MOOVA” value (MOOVA (Monochoria); 0.2500 kg/ha) of the same molecule?
**A.** 7.0

**Q.** What about the “Herbicidal rating SAGPY” value ([6]; 0.0313 kg/ha) of the same molecule?
**A.** 0.0

**Q.** What about the “Herbicidal rating SAGPY” value ([6]; 0.0625 kg/ha) of the same molecule?
**A.** 0.0

**Q.** What about the “Herbicidal rating SAGPY” value ([6]; 0.1250 kg/ha) of the same molecule?
**A.** 0.0

**Q.** And the “Herbicidal rating SAGPY” value ([6]; 0.2500 kg/ha)?
**A.** 0.0

**Q.** What about the “Herbicidal rating CYPSE” value (CYPSE (Flatsedge); rate 0.0313 kg/ha) of the same molecule?
**A.** 0.0

**Q.** And the “Herbicidal rating CYPSE” value (CYPSE (Flatsedge); rate 0.0625 kg/ha)?
**A.** 0.0

**Q.** And the “Herbicidal rating CYPSE” value (CYPSE (Flatsedge); rate 0.1250 kg/ha)?
**A.** 0.0

**Q.** And the “Herbicidal rating CYPSE” value (CYPSE (Flatsedge); rate 0.2500 kg/ha)?
**A.** 0.0

Reference: patent US20020137929A1, “1 - (3-heterocyclylphenyl) isothiourea, -isourea, -guanidine and -amidine herbicidal agents” (Intellectual Property Department, BASF Aktiengesellschaft, priority 1998, published 2002)
